Key:
Type in all cases: in vivo
Bemisia tabaci SUD-S [1] = experiment: Leaf-dip bioassay, 2nd-instar nymphs, insecticide-susceptible strain SUD-S; settings: nymphs in 2nd stage, mortality 10-12 d
Description: Larvale Tauch-Bioassays wurden mit geringfügigen Änderungen gemäß Elbert und Nauen (1996) durchgeführt. Die echten Blätter einer drei Wochen alten Baumwollpflanze wurden alle außer einem entfernt. Das verbleibende Blatt wurde auf eine Größe von ca. 15-20 cm^2 zurechtgeschnitten. Die Pflanzen wurden ohne Verwendung von Clip-Käfigen mit adulten Weißen Fliegen infiziert (ca. 20-30 adulte Tiere pro Blatt für 6-7 h). Die Weißen Fliegen wurden dann entfernt und zum geeigneten Zeitpunkt (gewöhnlich nach 10-12 d wenn die Nymphen im zweiten Stadium vorherrschten) wurden die infizierten Blätter für 5 sec in serielle wässrige Insektizidlösungen (s.o.) getaucht. […] Jedes Insektizid wurde mindestens dreifach mit 2- oder 3-fach Bestimmungen pro Konzentration getestet.
(§1) LC50-Werte wurden aus Probit-Regressionen unter Verwendung des Computerprogramms POLO-PC 2 (LeOra Software, Berkeley, USA) berechnet.
(§2) Tabelle 1. Log-Dosis Probit Mortalitätsdaten für verschiedene Klassen von Insektiziden erhalten aus Blatt-Tauch-Bioassays gegen adulte Tiere zweier Bemisia tabaci Stämme, SUD-S und ESP-00, die bekanntermaßen Insektizid-empfindlich (SUD-S) bzw. multiresistent (ESP-00) sind (Stumpf und Nauen, 2003). Mortalität wurde nach 72 h bestimmt, mit Ausnahme von Buprofezin (10-12 d).

Bemisia tabaci ESP-00 [2] = experiment: Leaf-dip bioassay, 2nd-instar nymphs, multi-resistant strain ESP-00
Description: Larvale Tauch-Bioassays wurden mit geringfügigen Änderungen gemäß Elbert und Nauen (1996) durchgeführt. Die echten Blätter einer drei Wochen alten Baumwollpflanze wurden alle außer einem entfernt. Das verbleibende Blatt wurde auf eine Größe von ca. 15-20 cm^2 zurechtgeschnitten. Die Pflanzen wurden ohne Verwendung von Clip-Käfigen mit adulten Weißen Fliegen infiziert (ca. 20-30 adulte Tiere pro Blatt für 6-7 h). Die Weißen Fliegen wurden dann entfernt und zum geeigneten Zeitpunkt (gewöhnlich nach 10-12 d wenn die Nymphen im zweiten Stadium vorherrschten) wurden die infizierten Blätter für 5 sec in serielle wässrige Insektizidlösungen (s.o.) getaucht. Die prozentuale Mortalität wurde an Tag 21-23 bei ca. 24 °C gemessen, sobald alle Überlebenden die Puppenstadien durchschritten hatten. Jedes Insektizid wurde mindestens dreifach mit 2- oder 3-fach Bestimmungen pro Konzentration getestet.
as §1, §2

Bemisia tabaci ESP-00 [3] = experiment: Leaf-dip bioassay, adult whiteflies, multi-resistant strain ESP-00; settings: adults; for ESP-00 LC50: multi-resistant strain ESP-00, mortality after 72 h
From the text: (§3) Es wurden Versuche durchgeführt, um die überlegene Blattwirkung von Enaminocarbonylverbindungen gegen adulte Tiere eines Stamms von Bemisia tabaci zu zeigen, der bekanntermaßen resistent ist gegen Neonikotinoid-Insektizide sowie andere Insektizidklassen, einschließlich Insekten-Wachstumsregulatoren (wie Buprofezin) und Antifeedants (Substanzen, die einen Schaderreger vom Fraß abhalten) (wie Pymetrozin).
(§4) Baumwollblattscheiben (30 mm im Durchmesser) wurden für 5 sec in wässrige Lösungen technischer Insektizide, enthaltend 0,2 g/l Triton-X-100 als nicht-ionisches Benetzungsmittel, getaucht. Luftgetrocknete Blattscheiben wurden dann mit der adaxialen Seite nach unten auf ein Agarbett (12 g/l) in einer kleinen Petrischale (40 mm im Durchmesser) gelegt. Adulte Weiße Fliegen wurden mittels eines Vakuum-getriebenen Aspirators aus Aufzuchtkäfigen eingesammelt und 20 adulte Tiere wurden nach kurzer CO2-Narkose auf die Blattscheiben gelegt. Anschließend wurde jede Petrischale mit einem belüfteten Deckel verschlossen und umgedreht aufbewahrt. Nach 72 h wurde die Mortalität der Weißen Fliegen bestimmt. Jedes Insektizid wurde mindestens dreifach mit 2-oder 3-fach Bestimmungen pro Konzentration getestet.
as §1, §2

Bemisia tabaci SUD-S [4] = experiment: Leaf-dip bioassay, adult whiteflies, insecticide-susceptible strain SUD-S; settings: adults, mortality after 72 h
From the text: as §3, §4, §1, §2

Compound | SUD-S LC50 (Bemisia tabaci SUD-S [1]) | Kreuzresistenz von Nymphen im zweiten Stadium des Stamms ESP-00 (Bemisia tabaci ESP-00 [2]; 2nd-stage nymphs, result in words) | ESP-00 LC50 (Bemisia tabaci ESP-00 [2]; nymphs in 2nd stage, multi-resistant strain ESP-00, mortality 10-12 d) | akute Kurzzeiteffekte gegen adulte Tiere von B. tabaci (Bemisia tabaci ESP-00 [3]; strain not specified, result in words) | SUD-S LC50 (Bemisia tabaci SUD-S [4]) | ESP-00 LC50 (Bemisia tabaci ESP-00 [3]) | Resistenz / Kreuz-resistenz von adulten B. tabaci Tieren des Stamms ESP-00 im Vergleich zu SUD-S (Bemisia tabaci ESP-00 [3]; leaf-dip, result in words)
CC(C)N1C(=O)N(c2ccccc2)CS/C1=N\C(C)(C)C [Buprofezin] | 0.27 ppm | starke Kreuzresistenz | 260 ppm | keine akuten Kurzzeiteffekte |  |  | 
CN/C(=N/CC1CCOC1)N[N+](=O)[O-] (centres unmarked) [Dinotefuran] |  |  |  |  | 0.17 ppm | 9.8 ppm | 
CC1=NNC(=O)N(/N=C/c2cccnc2)C1 [Pymetrozin] |  |  |  |  | 0.49 ppm | 360 ppm | starke Resistenz
CN1COCN(Cc2cnc(Cl)s2)/C1=N\[N+](=O)[O-] [Thiamethoxam] |  |  |  |  | 1.1 ppm | 76 ppm | 

From patent publication EP2198709A1, “Method for treating resistant animal pests” (Bayer CropScience AG, priority 2008, dated 2010)
